IC50 and Activity data for six compounds are collected here from ChEMBL document CHEMBL1141429, “Ecdysteroids from the Antarctic tunicate Synoicum adareanum” (J Nat Prod, 2007).

As a reminder, the IC50 is the concentration that gives 50% inhibition.

In one data set the test system is HCT-116. Briefly: Cytotoxicity against human HCT116 cells after 3 days by disk diffusion assay. Format: functional, cell-based. The note with it: for IC50: HCT-116, 72 h. A general note: A growth-free zone around the sample is the usual read-out of agar diffusion tests.
In another data set the test system is H125M. Briefly: Cytotoxicity against human H125M cells after 3 days by disk diffusion assay. It counts as functional, cell-based.
The next data set concerns CCRF-CEM. Briefly: Cytotoxicity against human CCRF-CEM cells after 3 days by disk diffusion assay. It counts as functional, cell-based.
Data set [1] is described as follows: Cytotoxicity against human CFU-GM cells after 3 days by disk diffusion assay. Format: cell-based. The following applies: 72 h.
In the next data set the test system is L1210. Briefly: Cytotoxicity against […] cells after 3 days by disk diffusion assay. Format: functional, cell-based.

In the data set on HCT-116, `C[C@H](CCC(C)(C)O)[C@H]1CCC(=O)[C@]23CC(=O)C4=C[C@H](O)[C@H](O)C[C@]4(C)[C@H]2CC[C@]13C` [ABEOHYOUSTERONE] displayed an IC50 of 3 µM.

Consider `C[C@H](CCCC(C)(C)O)[C@H]1CC[C@H]2C3=CC(=O)C4=C[C@H](O)[C@H](O)C[C@]4(C)[C@H]3CC[C@]12C` [DIAULUSTEROL B], for which the Activity result was “Not toxic” with H125M; “Not toxic” in the data set with CCRF-CEM; “Non-toxic” in data set [1]; “Not toxic” in the data set with HCT-116; “Not toxic” in the data set with L1210.

Take `C[C@H](CCCC(C)(C)O)[C@H]1CC[C@@]2(O)C3=CC(=O)C4=C[C@H](O)[C@H](O)C[C@]4(C)[C@H]3CC[C@]12C` [HYOUSTERONE A]: the IC50 in the data set on HCT-116 is 10.7 µM.

As for `C[C@H](CCCC(C)(C)O)[C@H]1CC[C@]2(O)C3=CC(=O)C4=C[C@H](O)[C@H](O)C[C@]4(C)[C@H]3CC[C@]12C` [HYOUSTERONE B], the Activity entry is “Not toxic” in the data set with H125M; “Not toxic” in the data set on CCRF-CEM; “Non-toxic” in data set [1]; “Not toxic” with HCT-116; “Not toxic” in the data set on L1210.

In the data set with HCT-116, `C[C@H](CCCC(C)(C)O)[C@H]1CC[C@@]2(O)C3=CC(=O)C4=C[C@H](O)[C@H](O)C[C@]4(C)[C@@]3(O)CC[C@]12C` [HYOUSTERONE C] registered an IC50 of 3.7 µM.

As to `C[C@H](CCCC(C)(C)O)[C@H]1CC[C@]2(O)C3=CC(=O)C4=C[C@H](O)[C@H](O)C[C@]4(C)[C@@]3(O)CC[C@]12C` [HYOUSTERONE D], the Activity result is “Not toxic” in the data set on H125M; “Not toxic” with CCRF-CEM; “Non-toxic” in data set [1]; “Not toxic” with HCT-116; “Not toxic” in the data set on L1210.
